Laboratory results as given in patent publication US7396837B2, “Antitumoral analogs of lamellarins” (Pharma Mar, S.A.U., priority 2002, dated 2008).

Tests used:
Type in all cases: cell-based
HT-29 = assay: SRB colorimetric cell growth inhibition assay, HT-29; conditions: Homo sapiens, HT-29, HT-29; for GI50: GI=growth inhibition, read-out: GI50 HT-29; for CC50: cell killing (cytotoxic effect), read-out: LC50 HT-29; for IC (TGI): total growth inhibition (cytostatic effect), read-out: TGI HT-29
From the text: (§1) The finality of these assays is to interrupt the growth of an “in vitro” tumor cell culture by means a continued exhibition of the cells to the sample to be testing.
(§2) A colorimetric type of assay, using sulforhodamine B (SRB) reaction has been adapted for a quantitative measurement of cell growth and viability (following the technique described by P. A. Skehan, et al., J. Natl. Cancer Inst. 1990, 82, 1107-1112).
(§3) This form of assay employs 96 well cell culture microplates of 9 mm diameter (T. Mosmann et al., J. of Immunological Methods 1983, 65, 55-63; G. T. Faircloth et al., J. of Tissue and Culture Methods 1988, 11, 201-205).
(§4) Most of the cell lines are obtained from American Type Culture Collection (ATCC) derived from different human cancer types.
(§5) The values for mean +/− SD of data from triplicate wells are calculated. Some parameters for cellular responses can be calculated: GI=growth inhibition, TGI=total growth inhibition (cytostatic effect) and LC=cell killing (cytotoxic effect).

HeLa-APL = assay: SRB colorimetric cell growth inhibition assay, HeLa-APL (aplidine resistant); conditions: Homo sapiens, HELA-APL; for GI50: GI=growth inhibition, read-out: GI50 HELA-APL; for CC50: cell killing (cytotoxic effect), read-out: LC50 HELA-APL; for IC (TGI): total growth inhibition (cytostatic effect), read-out: TGI HELA-APL
From the text: as §1, §2, §3, §4, §5

SK-BR-3 = assay: SRB colorimetric cell growth inhibition assay, SK-BR-3; conditions: Homo sapiens, SK-BR-3, SK-BR-3
From the text: as §1, §2, §3, §4, §5

DU-145 = assay: SRB colorimetric cell growth inhibition assay, DU-145; conditions: Homo sapiens, DU-145, DU-145; for GI50: GI=growth inhibition, read-out: GI50 DU-145; for CC50: cell killing (cytotoxic effect), read-out: LC50 DU-145; for IC (TGI): total growth inhibition (cytostatic effect), read-out: TGI DU-145
From the text: as §1, §2, §3, §4, §5

HeLa = assay: SRB colorimetric cell growth inhibition assay, HeLa; conditions: Homo sapiens, HeLa; for GI50: GI=growth inhibition, read-out: GI50 HELA; for CC50: cell killing (cytotoxic effect), read-out: LC50 HELA; for IC (TGI): total growth inhibition (cytostatic effect), read-out: TGI HELA
From the text: as §1, §2, §3, §4, §5

SK-MEL-28 = assay: SRB colorimetric cell growth inhibition assay, SK-MEL-28; conditions: Homo sapiens, SK-MEL-28, MEL-28; for GI50: GI=growth inhibition, read-out: GI50 MEL-28; for CC50: cell killing (cytotoxic effect), read-out: LC50 MEL-28; for IC (TGI): total growth inhibition (cytostatic effect), read-out: TGI MEL-28
From the text: as §1, §2, §3, §4, §5

IGROV-ET = assay: SRB colorimetric cell growth inhibition assay, IGROV-ET (ET-743 resistant); conditions: Homo sapiens, IGROV-ET; for GI50: GI=growth inhibition, read-out: GI50 IGROV-ET; for CC50: cell killing (cytotoxic effect), read-out: LC50 IGROV-ET; for IC (TGI): total growth inhibition (cytostatic effect), read-out: TGI IGROV-ET
From the text: as §1, §2, §3, §4, §5

PANC-1 = assay: SRB colorimetric cell growth inhibition assay, PANC-1; conditions: Homo sapiens, PANC-1, PANC-1; for GI50: GI=growth inhibition, read-out: GI50 PANC-1; for CC50: cell killing (cytotoxic effect), read-out: LC50 PANC-1; for IC (TGI): total growth inhibition (cytostatic effect), read-out: TGI PANC-1
From the text: as §1, §2, §3, §4, §5

LoVo-Dox = assay: SRB colorimetric cell growth inhibition assay, LoVo-Dox (MDR); conditions: Homo sapiens, LOVO-DOX; for GI50: GI=growth inhibition, read-out: GI50 LOVO-DOX; for CC50: cell killing (cytotoxic effect), read-out: LC50 LOVO-DOX; for IC (TGI): total growth inhibition (cytostatic effect), read-out: TGI LOVO-DOX
From the text: as §1, §2, §3, §4, §5

LNCaP = assay: SRB colorimetric cell growth inhibition assay, LNCaP; conditions: Homo sapiens, LNCaP, LN-caP; for GI50: GI=growth inhibition, read-out: GI50 LN-caP; for CC50: cell killing (cytotoxic effect), read-out: LC50 LN-caP; for IC (TGI): total growth inhibition (cytostatic effect), read-out: TGI LN-caP
From the text: as §1, §2, §3, §4, §5

LoVo = assay: SRB colorimetric cell growth inhibition assay, LoVo; conditions: Homo sapiens, LoVo; for GI50: GI=growth inhibition, read-out: GI50 LOVO; for CC50: cell killing (cytotoxic effect), read-out: LC50 LOVO; for IC (TGI): total growth inhibition (cytostatic effect), read-out: TGI LOVO
From the text: as §1, §2, §3, §4, §5

A-549 = assay: SRB colorimetric cell growth inhibition assay, A-549; conditions: Homo sapiens, A549, A-549; for GI50: GI=growth inhibition, read-out: GI50 A-549; for CC50: cell killing (cytotoxic effect), read-out: LC50 A-549; for IC (TGI): total growth inhibition (cytostatic effect), read-out: TGI A-549
From the text: as §1, §2, §3, §4, §5

IGROV = assay: SRB colorimetric cell growth inhibition assay, IGROV; conditions: Homo sapiens, IGROV; for GI50: GI=growth inhibition, read-out: GI50 IGROV; for CC50: cell killing (cytotoxic effect), read-out: LC50 IGROV; for IC (TGI): total growth inhibition (cytostatic effect), read-out: TGI IGROV
From the text: as §1, §2, §3, §4, §5

K-562 = assay: SRB colorimetric cell growth inhibition assay, K-562; conditions: Homo sapiens, K562, K-562
From the text: as §1, §2, §3, §4, §5

| SMILES | GI50 (HT-29) [nM] | CC50 (HT-29) [nM] | IC (TGI) (HT-29) [nM] | GI50 (HeLa-APL) [nM] | CC50 (HeLa-APL) [nM] | IC (TGI) (HeLa-APL) [nM] | GI50 (DU-145) [nM] | CC50 (DU-145) [nM] | IC (TGI) (DU-145) [nM] | GI50 (HeLa) [nM] | CC50 (HeLa) [nM] | IC (TGI) (HeLa) [nM] | GI50 (SK-MEL-28) [nM] | CC50 (SK-MEL-28) [nM] | IC (TGI) (SK-MEL-28) [nM] | GI50 (IGROV-ET) [nM] | CC50 (IGROV-ET) [nM] | IC (TGI) (IGROV-ET) [nM] | GI50 (PANC-1) [nM] | CC50 (PANC-1) [nM] | further results |
| --- | --- | --- | --- | --- | --- | --- | --- | --- | --- | --- | --- | --- | --- | --- | --- | --- | --- | --- | --- | --- | --- |
| CC[C@H](C)[C@H](N)C(=O)Oc1ccc(-c2c3c4cc(OC)c(OC(=O)[C@@H](N)[C@@H](C)CC)cc4oc(=O)c3n3ccc4cc(OC(=O)[C@@H](N)[C@@H](C)CC)c(OC)cc4c23)cc1OC [Compound 209] | 3380 | 10500 | 9990 | 82.7 | 517 | 221 | 4.29 | 40.4 | 11.9 | 66.2 | 1010 | 269 | 32.8 | 480 | 83.9 | 31.7 | 345 | 70.1 | 67.4 | 1030 | GI50 (SK-BR-3; GI=growth inhibition, read-out: GI50 SK-BR-3): 47.8 nM; CC50 (SK-BR-3; cell killing (cytotoxic effect), read-out: LC50 SK-BR-3): 101 nM; IC (TGI) (SK-BR-3; total growth inhibition (cytostatic effect), read-out: TGI SK-BR-3): 69.5 nM; IC (TGI) (PANC-1): 282 nM; GI50 (LoVo-Dox): 137 nM; CC50 (LoVo-Dox): 2600 nM; IC (TGI) (LoVo-Dox): 488 nM; GI50 (LNCaP): 15.8 nM; CC50 (LNCaP): 233 nM; IC (TGI) (LNCaP): 56 nM; GI50 (LoVo): 119 nM; CC50 (LoVo): 527 nM; IC (TGI) (LoVo): 251 nM; GI50 (A-549): 42.8 nM; CC50 (A-549): 713 nM; IC (TGI) (A-549): 195 nM; GI50 (IGROV): 33.7 nM; CC50 (IGROV): 477 nM; IC (TGI) (IGROV): 124 nM |
| COc1cc2c(cc1O)oc(=O)c1c2c(-c2ccc(OC)c(OC)c2)c2c3cc(OC)c(O)cc3ccn21 [Compound 233] | 19500 | 19500 | 19500 | 417 | 14300 | 3150 | 78.3 | 19500 | 180 | 191 | 16000 | 3820 | 169 | 19500 | 4750 | 107 | 19500 | 721 | 341 | 19500 | GI50 (K-562; GI=growth inhibition, read-out: GI50 K-562): 95.8 nM; CC50 (K-562; cell killing (cytotoxic effect), read-out: LC50 K-562): 8610 nM; IC (TGI) (K-562; total growth inhibition (cytostatic effect), read-out: TGI K-562): 1090 nM; IC (TGI) (PANC-1): 19500 nM; GI50 (LoVo-Dox): 1050 nM; CC50 (LoVo-Dox): 19500 nM; IC (TGI) (LoVo-Dox): 15400 nM; GI50 (LNCaP): 126 nM; CC50 (LNCaP): 3720 nM; IC (TGI) (LNCaP): 557 nM; GI50 (LoVo): 545 nM; CC50 (LoVo): 19500 nM; IC (TGI) (LoVo): 1310 nM; GI50 (A-549): 312 nM; CC50 (A-549): 19500 nM; IC (TGI) (A-549): 2060 nM; GI50 (IGROV): 49.9 nM; CC50 (IGROV): 19500 nM; IC (TGI) (IGROV): 142 nM |
